Experimental findings from patent US12678446B2 (PFIZER INC., priority 2020, dated 2026) are described below.

Series [1] deals with RSV (RSV A2 ECACC, 0709161v). Description: RSV plaque reduction assay. It counts as cell-based, respiratory syncytial virus. To be noted: human respiratory syncytial virus, HepG2, read-out: RSV A2 Plaque EC50, RSV A2 in Hep-G2 cells; mean of at least two experiments unless noted (n = 1). As for the experimental part: Compounds w ere subjected to RSV plaque reduction assays according to the following protocol.
Hep-G2 cells (ECACC, 85011430) were passaged in flasks and seeded in 24-well plates in DMEM containing antibiotics and supplemented with 10% FBS. During inoculation and subsequent incubation, cells were cultured in DMEM containing 2% FBS. 100 plaque forming unit/well of RSV (RSV A2 ECACC, 0709161v) was mixed with eight serial dilutions of compound. Subsequently, 100 μL of the virus/compound mixtures was added to confluent Hep-G2 cell monolayers. The cells and virus/compound mixtures were incubated at 37° C. in a humidified 5% CO2 incubator for 2 h prior to removal of the inoculum and addition of 1 mL of overlay (DMEM containing 2% FBS and 0.8% CMC) containing compound dilutions. The cells and were incubated at 37° C. in a humidified 5% CO2 incubator for 2 days.
Cells were washed with PBS before adding 75/25% v/v EtOH MeOH, for 3 min. Fixative was removed and plates were washed with PBS. A pre-titrated amount of the primary antibody was added in 200 μL PBS/2% milk powder, and plates incubated for 90 min at 37° C. The plates were washed 3 times with PBS/0.05% Tween20 before addition of rabbit anti-goat horse radish peroxidase in 200 μL PBS/2% milk powder, and incubated for 1 h at 37° C. Following three wash steps with PBS/0.05% Tween20, 200 μL ready-to-use TrueBlue was added and plates were incubated at rt for 10-15 min before washing with water. After removal of water, plates were air-dried in the dark.
Plates were scanned and analysed using the Immunospot S6 Macro analyser, which is equipped with BioSpot analysis software for counting immunostained plaques (virospots). Plaque counts were used to calculate % infection relative to the mean of the plaque count in the virus control wells for RSV. […] Unless otherwise noted, plaque EC50 and cell toxicity CC50 values are a mean of at least two experiments and figures are rounded to whole units.

A short description of the next series: cell toxicity CC50. The conditions noted are these: human; Hep-G2 cells; mean of at least two experiments; read-out: Cell Cytotoxicity CC50. It counts as cell-based.

Structures are written as SMILES. Bounds are passed on as bounds.

Turning to `CCn1cc(-c2nn3c(c2C(=O)N[C@H]2N=C(c4ccccc4)c4cccc(F)c4NC2=O)OCCC3)cn1` [Example 99, 2-(1-Ethylpyrazol-4-yl)-N-[(3S)-9-fluoro-2-oxo-5-phenyl-1,3-dihydro-1,4-benzodiazepin-3-yl]-6,7-dihydro-5H-pyrazolo[5,1-b][1,3]oxazine-3-carboxamide], in series [1], the EC50 worked out at 71 nM. The cytotoxic concentration (CC50) in the series “cell toxicity CC50” was above 25000 nM.
For the compound `Cc1cc(-c2nn3c(c2C(=O)N[C@H]2N=C(c4ccccc4)c4cccc(F)c4NC2=O)O[C@H](C)CC3)c(F)cn1` [Example 79, (5R)-2-(5-Fluoro-2-methylpyridin-4-yl)-N-[(3S)-9-fluoro-2-oxo-5-phenyl-1,3-dihydro-1,4-benzodiazepin-3-yl]-5-methyl-6,7-dihydro-5H-pyrazolo[5,1-b][1,3]oxazine-3-carboxamide], the EC50 in series [1] is 115 nM. Moreover, the CC50 in the series “cell toxicity CC50” is above 25000 nM.
As for `C[C@@H]1CCn2nc(-c3ccc(N4C[C@H]5C[C@@H]4CO5)nc3)c(C(=O)N[C@H]3N=C(c4ccccc4)c4cccc(F)c4NC3=O)c2O1` [Example 86, (5R)-5-Methyl-N-[(3S)-9-fluoro-2-oxo-5-phenyl-1,3-dihydro-1,4-benzodiazepin-3-yl]-2-[6-[(1R,4R)-2-oxa-5-azabicyclo[2.2.1]heptan-5-yl]pyridin-3-yl]-6,7-dihydro-5H-pyrazolo[5,1-b][1,3]oxazine-3-carboxamide], the EC50 in series [1] stood at 44 nM. Besides, in the series “cell toxicity CC50”, the half-maximal cytotoxic concentration (CC50) is above 25000 nM.
In the case of `Cc1ccccc1-c1nn2c(c1C(=O)N[C@H]1N=C(c3ccccc3)c3cccc(F)c3NC1=O)OCCC2` [Example 6, N-[(3S)-9-Fluoro-2-oxo-5-phenyl-1,3-dihydro-1,4-benzodiazepin-3-yl]-2-(2-methylphenyl)-6,7-dihydro-5H-pyrazolo[5,1-b][1,3]oxazine-3-carboxamide], the concentration giving a half-maximal response (EC50) in series [1] worked out at 165 nM. In addition, the CC50 in “cell toxicity CC50” was above 25000 nM.
The like results for `Cc1ccc(-c2nn3c(c2C(=O)N[C@H]2N=C(c4ccccc4)c4cccc(F)c4NC2=O)O[C@H](C)CC3)c(F)n1` [Example 73, (5R)-2-(2-Fluoro-6-methylpyridin-3-yl)-5-methyl-N-[(3S)-9-fluoro-2-oxo-5-phenyl-1,3-dihydro-1,4-benzodiazepin-3-yl]-6,7-dihydro-5H-pyrazolo[5,1-b][1,3]oxazine-3-carboxamide] were, in that order, 91 nM and above 25000 nM.
The like results for `Cc1cc(NC(C)C)ncc1-c1nn2c(c1C(=O)N[C@H]1N=C(c3ccccc3)c3cccc(F)c3NC1=O)O[C@H](C)CC2` [Example 92, (5R)-5-Methyl-2-[4-methyl-6-(propan-2-ylamino)pyridin-3-yl]-N-[(3S)-9-fluoro-2-oxo-5-phenyl-1,3-dihydro-1,4-benzodiazepin-3-yl]-6,7-dihydro-5H-pyrazolo[5,1-b][1,3]oxazine-3-carboxamide] were, in that order, 131 nM and above 25000 nM.
For the compound `O=C(N[C@H]1N=C(c2ccccc2)c2ccccc2NC1=O)c1c(-c2ccccc2)nn2c1OCCC2` [Example 22, N-[(3S)-2-oxo-5-phenyl-1,3-dihydro-1,4-benzodiazepin-3-yl]-2-phenyl-6,7-dihydro-5H-pyrazolo[5,1-b][1,3]oxazine-3-carboxamide], in series [1], the EC50 was 140 nM. Further, the CC50 in the series “cell toxicity CC50” is above 25000 nM.
On to `O=C(N[C@H]1N=C(c2ccccc2)c2ccccc2NC1=O)c1c(-c2ccc(F)cc2F)nn2c1OCCC2` [Example 1, 2-(2,4-Difluorophenyl)-N-[(3S)-2-oxo-5-phenyl-1,3-dihydro-1,4-benzodiazepin-3-yl]-6,7-dihydro-5H-pyrazolo[5,1-b][1,3]oxazine-3-carboxamide], for which the EC50 in series [1] is 33 nM. Also, the CC50 in “cell toxicity CC50” was above 25000 nM.
On to `Cn1ncc2c(-c3nn4c(c3C(=O)N[C@H]3N=C(c5ccccc5)c5cccc(F)c5NC3=O)OCCC4)cccc21` [Example 147, N-[(3S)-9-fluoro-2-oxo-5-phenyl-1,3-dihydro-1,4-benzodiazepin-3-yl]-2-(1-methylindazol-4-yl)-6,7-dihydro-5H-pyrazolo[5,1-b][1,3]oxazine-3-carboxamide], for which the EC50 in series [1] worked out at 137 nM. Also, the 50% cytotoxic concentration (CC50) in the series “cell toxicity CC50” is above 25000 nM.
The like results for `CC1(C)COc2c(C(=O)N[C@H]3N=C(c4ccccc4)c4ccccc4NC3=O)c(-c3ccccc3F)nn2C1` [Example 40, 2-(2-Fluorophenyl)-6,6-dimethyl-N-[(3S)-2-oxo-5-phenyl-1,3-dihydro-1,4-benzodiazepin-3-yl]-5,7-dihydropyrazolo[5,1-b][1,3]oxazine-3-carboxamide] were, in that order, 57 nM and above 25000 nM.
For the compound `C[C@@H]1CCn2nc(-c3cnn(C4COC4)c3)c(C(=O)N[C@H]3N=C(c4ccccc4)c4cccc(F)c4NC3=O)c2O1` [Example 116, (5R)-N-[(3S)-9-fluoro-2-oxo-5-phenyl-1,3-dihydro-1,4-benzodiazepin-3-yl]-5-methyl-2-[1-(oxetan-3-yl)pyrazol-4-yl]-6,7-dihydro-5H-pyrazolo[5,1-b][1,3]oxazine-3-carboxamide], the 50% effective concentration (EC50) in series [1] turned out to be 127 nM. In the series “cell toxicity CC50”, the 50% cytotoxic concentration (CC50) was above 25000 nM.
The like results for `O=C(N[C@H]1N=C(c2ccccc2)c2cccc(F)c2NC1=O)c1c(-c2ccc(NC3CC3)nc2F)nn2c1OCCC2` [Example 39, 2-[6-(Cyclopropylamino)-2-fluoropyridin-3-yl]-N-[(3S)-9-fluoro-2-oxo-5-phenyl-1,3-dihydro-1,4-benzodiazepin-3-yl]-6,7-dihydro-5H-pyrazolo[5,1-b][1,3]oxazine-3-carboxamide] were, in that order, 40 nM and above 25000 nM.
With `O=C(N[C@H]1N=C(c2ccccc2)c2cccc(F)c2NC1=O)c1c(-c2ccccc2F)nn2c1OCC(Cn1cccn1)C2` (stereo partly drawn) [Example 124, N-[(3S)-9-fluoro-2-oxo-5-phenyl-1,3-dihydro-1,4-benzodiazepin-3-yl]-2-(2-fluorophenyl)-6-(pyrazol-1-ylmethyl)-6,7-dihydro-5H-pyrazolo[5,1-b][1,3]oxazine-3-carboxamide], the EC50 in series [1] is 76 nM. In addition, the CC50 in “cell toxicity CC50” was above 25000 nM.
On to `O=C(N[C@H]1N=C(c2ccccc2)c2ccccc2NC1=O)c1nn2c(c1-c1ccccc1F)OCC2` [Example 37, 7-(2-Fluorophenyl)-N-[(3S)-2-oxo-5-phenyl-1,3-dihydro-1,4-benzodiazepin-3-yl]-2,3-dihydropyrazolo[5,1-b][1,3]oxazole-6-carboxamide], for which, in series [1], the concentration for a half-maximal effect (EC50) worked out at 333 nM. Moreover, the CC50 in “cell toxicity CC50” was above 25000 nM.
Turning to `C[C@@H]1CCn2nc(-c3cnn(CC(C)(C)O)c3)c(C(=O)N[C@H]3N=C(c4ccccc4)c4cccc(F)c4NC3=O)c2O1` [Example 122, (5R)-N-[(3S)-9-fluoro-2-oxo-5-phenyl-1,3-dihydro-1,4-benzodiazepin-3-yl]-2-[1-(2-hydroxy-2-methylpropyl)pyrazol-4-yl]-5-methyl-6,7-dihydro-5H-pyrazolo[5,1-b][1,3]oxazine-3-carboxamide], the EC50 in series [1] was 166 nM. The 50% cytotoxic concentration (CC50) in “cell toxicity CC50” was above 25000 nM.
In the case of `CS(=O)(=O)CC1COc2c(C(=O)N[C@H]3N=C(c4ccccc4)c4cccc(F)c4NC3=O)c(-c3ccccc3F)nn2C1` (stereo partly drawn) [Example 184, N-[(3S)-9-fluoro-2-oxo-5-phenyl-1,3-dihydro-1,4-benzodiazepin-3-yl]-2-(2-fluorophenyl)-6-(methylsulfonylmethyl)-6,7-dihydro-5H-pyrazolo[5,1-b][1,3]oxazine-3-carboxamide], the EC50 in series [1] worked out at 300 nM. The 50% cytotoxic concentration (CC50) in “cell toxicity CC50” was above 25000 nM.
